US20030138430A1, “Pharmaceutical comprising an agent that blocks the cell cycle and an antibody” (priority 2002, published 2003)
Counter-ions that a name gives are not always drawn.

Key:
[1] = system: Ep-CAM antigen on HT-29 colon adenocarcinoma cells; assay: Internalization of lutetium-177-labeled GW1208W95 (anti-Ep-CAM); format: cell-based, human; settings: HT-29 cells pretreated with drug; 37° C
Protocol: Internalization of Lutetium-177-labeled GW1208W95 (anti-Ep-CAM) by Human Colon Adenocarcinoma Cells. Colon adenocarcinoma cells (HT-29) were plated in 6-well plates and cultured. Subconfluent cells were exposed to cytotoxic drugs for up to 24 hours. Cells were washed and cultured for another 2-5 days. The plates were put on ice (0° C.) for minimum of 60 minutes and lutetium-177-labeled coupled to 6,6″-bis {N,N,N″,N″-tetra(carboxymethyl)aminomethyl)-4′-(3-bromoacetamido-4-methoxyphenyl-2,2′:6,2″-terpyridine) at 0.5-1.0 mCi/mg was added at a final concentration of 6.7 nM. Cells were incubated at 0° C. for 3.5 hr. Following incubation at 0° C., the cells were washed with 2.5 mL of ice-cold phosphate-buffered saline with human serum albumin (1%) (PBS-HSA). Then 2.5 mL pre-warmed media was added and the labeled cells were incubated at 37° C. At the indicated time points, cells were washed twice with 2.5 mL PBS-HSA. Cells were incubated for 5 minutes at room temperature with 2.5 mL 0.1 M NaCl in 0.05 M glycine (pH 2.8) to detemine labeled antibody bound to the target surface antigen. The incubation was repeated and counts pooled. Internalized counts were determined by solubilization of the cell layer with 1.0 mL of 1 N NaOH. Samples were counted using a Packard CliniGamma 5000. Data was normalized to cell count for each well.
Colon adenocarcinoma cells (HT-29) in culture were pretreated with chemotherapeutic agents as described previously for the evaluation of cell cycle and cell surface antigen quantitation. […] Cells were pulse-labeled with ^177Lu-GW1208W95 (6.7 nM @ 0.5-1.0 mCi/mg protein) for a minimum of 60 minutes at 0° C. on ice to inhibit surface antigen internalization. After washing away of excess radiolabeled antibody fresh media was added, and the cells were incubated at 37° C. for time indicated. Surface-bound antibody was eluted with isotonic buffer and both acid-labile (surface-bound) and acid-stable (internalized) radioactivity were quantitated.

[2] = system: erbB2 receptor on MCF-7 and MDA-MB-468 breast adenocarcinoma cells; assay: Quantitation of cell surface erbB2 presentation; format: cell-based; settings: for cell surface erbB2 presentation: compared with untreated controls (Example 2); for cell surface presentation of erbB2 receptor: Example 3
Protocol: (§1) Populations of adenocarcinoma cells were evaluated for distribution in G0/G1, S and G2/M phases of the cell cycle as well as for erbB2/neu presentation. Cells were dissociated from the culture plates using Versene (Gibco) and resuspended in calcium- and magnesium-free phosphate-buffered saline containing bovine serum albumin and sodium azide. Exactly 2×10^5 cells were stained with R-Phycoerythrin-conjugated-anti-HER-2/neu murine IgG (Cat. 340552, Becton Dickinson) in buffer containing 100 μg/mL mouse IgG (Cat. 15381, Sigma). Cells were fixed with FACSLyse (Cat. 92-002, Becton Dickinson) followed by a short post-fix with ethanol at −20° C. Cellular DNA was stained with DAPI (Cat. D1306, Molecular Probes) in buffer containing RNase A (Sigma).
Sample data were collected on a FACStar^PLUS® flow cytometer (Becton Dickinson) equipped with a 488 nm argon ion laser in position 1 and a 350 nm argon ion laser in position 2. For each cell analyzed, data was collected on signal pulses from linear forward scatter height and width, linear area and width of DAPI fluorescence for DNA, and logarithmic fluorescence height of the HER-2/neu antibody probe. The resulting listmode files were processed using Winlist 3D© software (Verity Software House, Topsham, Me.). […] The remaining cells were analyzed for cell cycle position by manual gating and HER-2/neu surface antigen density. Using the bead standard system described in Example 2, values of mean fluorescence intensity for HER-2/neu and other antigens were converted to values of “Antibodies Bound per Cell” (ABC) during analysis.
Cells were exposed to Gemzar (gemcitabine (GMZ), Lilly, Indianapolis, Ind.) for 24 hours. […] Following drug exposure, cells were washed and cultured for another 2-5 days prior to analysis for antigen presentation and cell cycle status, except for those treated with BB-94. Cells were dissociated from the culture plates using Versene (Gibco) and resuspended in calcium- and magnesium-free phosphatebuffered saline containing bovine serum albumin and sodium azide. Exactly 2×10^5 cells were stained as described in Example 1. Antigen presentation was quantified against calibrated bead standards calibrated by the vendor for murine IgG binding capacity (Quantum Simply Cellular Bead, Cat. QSC-100, Sigma); calibration beads were stained with R-phycoerythrin-conjugated anti-HER-2/neu murine IgG. Plots of fluorescence intensity against bead IgG binding capacity were constructed, and molecules of IgG bound per cell was read from the fluorescence intensity of the stained cells.
Cells were exposed to interferons continuously for 2-5 days. […] Exactly 2×10^5 cells were stained as described in Example 1, and antigen expression was quantified as described in Example 2.

[3] = system: erbB2 receptor on NHBE and HMEC normal epithelial cells; assay: Quantitation of cell surface erbB2 presentation on normal epithelial cells; format: cell-based, human; settings: compared with untreated controls
Protocol: Cells were exposed to Gemzar (gemcitabine (GMZ), Lilly, Indianapolis, Ind.) or 5FU (Adrucil®, Pharmacia & Upjohn) for 24 hours. Cells were exposed to interferons continuously for 2-5 days. Following drug exposure, cells were washed and cultured for another 2-5 days prior to analysis for antigen presentation and cell cycle status, except for those treated with interferons. Cells were dissociated from the culture plates using a collagenase cocktail (1:1:1,Types I, II, and IV, 0.1% (wt/vol), Gibco) in calcium- and magnesium-free phosphate-buffered saline. Cells were stained and cytometric data was collected as described in Example 1, and antigen expression was quantified as described in Example 2.

[4] = system: HT-29 colon adenocarcinoma tumors; assay: Targeting of 177Lu-labelled antibody to Ep-CAM-positive HT-29 xenografts; format: in vivo, mouse
Protocol: Human colon adenocarcinoma (HT-29) tumors were initiated by subcutaneous implantation into female CD-1 nude mice (Charles River). When the tumors reached 200-300 mg, animals were divided into groups of five. […] A control group was dosed with 5-fluorouracil (5-FU) intraperitoneally at 20 mg/kg on days 1 and 5. […] Blood, spleen, liver, lung, kidney, femur, and tumor were harvested on days 1, 3 and 5 post-antibody-dose for direct gamma counting (Packard).

[5] = system: PC-3 prostatic adenocarcinoma cells; settings: PC-3 cells; Navelbine 30 nM alone or with cisplatin; GW3622W94; human PBMC effectors 50:1; 6 hours
Protocol: Ep-CAM Antigen Expression and ADCC of Prostatic Adenocarcinoma in Culture. Biological Effectiveness in vitro as Measured by Antibody-dependent Cellular Cytotoxicity. […] Target cells were cultured overnight with 100 μCi Na2^51CrO4 (Amersham) in media, and then washed 3 times with RPMI-1640 containing 2 mM L-glutamine, 50 μg/mL gentamicin, and 10% heat-inactivated FBS. […] Spontaneous lysis wells (CPMspontaneous) received media (no effectors) and total lysis wells (CPMTotal) received Triton-X-100. Cultures were incubated for 6 hours at 37° C./5% CO2, then supernatants were harvested using Skatron filter frames (Skatron Instruments, Sterling Va.). Radioactivity was counted in a gamma counter and the percentage specific release, corrected for spontaneous lysis, was calculated.

[6] = Navelbine tolerability in CD-1 nude mice; settings: intravenous, days 1 and 5, CD-1 nude mice
Protocol: Human colon adenocarcinoma (HT-29) tumors were initiated by subcutaneous implantation into female CD-1 nude mice (Charles River). When the tumors reached 200-300 mg, animals were divided into groups of five. Navelbine was injected intravenously at a dosage of 28 mg/kg in vehicle (5% dextrose in distilled water) on days 1 and 5.

[7] = system: Ep-CAM antigen on HT-29 colon adenocarcinoma cells; assay: Quantitation of cell surface Ep-CAM antigen with FITC-323/A3; format: cell-based, human; settings: HT-29 cells after drug exposure, vs media control
Protocol: (§2) FIG. 7. Cell Cycle Analysis and Quantitation of Antigen Expression. Populations of adenocarcinoma cells were evaluated for distribution in G0/G1, S, and G2/M phases of the cell cycle as well as Ep-CAM presentation on the cell surface. […] Cells were exposed to 5-fluorouracil (5-FU) for 24 hours, and to the interferons continuously for 2-5 days. Cells were washed and cultured for another 2 days prior to analysis for antigen presentation except for cells exposed to interferons. Cells were lightly trypsinized and mechanically detached from the culture flasks and resuspended in calcium- and magnesium-free phosphate-buffered saline containing bovine serum albumin and sodium azide. Exactly 2×10^5 cells were stained with FITC-323/A3 murine IgG antibody or FITC-murine IgG (control). Cells were fixed with cold paraformaldehyde, then permeabilized for DNA staining with Tween-20. Cellular DNA was stained with a propidium iodide buffer containing RNAse A. Listmode data were acquired using Lysis II software on a FACScan flow cytometer (Becton Dickinson Immunocytometry Systems) equipped with a 488 nm laser. Cell cycle analysis was done using CellFit software for SOBR modeling of the histograms (where possible, otherwise manual estimations were employed) on Cell-Fit. Ep-CAM antigen presentation was quantitated by comparison of the mean fluorescence intensity of fluorescein-conjugated 323/A3 bound to cultured cells with the fluorescence intensity of calibrated microbead standards and evaluated separately using histogram analysis in WinList (Verity Software House). Standard curves of calibration bead concentration versus fluorescence intensity were constructed in SoftMax Pro (Molecular Devices, Inc.), and fluorescence intensity of stained cells was used to calculate the number of antigen molecules per cell for the population.
(§3) Adenocarcinoma cells (HT-29) were exposed to Navelbine or Taxol or combinations of drugs as indicated in FIG. 7 and the cells were evaluated for cell surface Ep-CAM presentation in addition to cell cycle distribution. […]

[8] = system: HT-29 colon adenocarcinoma cells; assay: Cell cycle analysis by flow cytometry (propidium iodide); format: cell-based, human; settings: HT-29 cells; media control 6.3%
Protocol: as §2, §3

[9] = system: BT-474 breast and NCI H322 lung adenocarcinoma cells; assay: Cell cycle analysis by flow cytometry (DAPI), high erbB2 cell lines; format: cell-based; settings: BT-474 and H322; BB-94 10 μM alone
Protocol: (§4) Cells were dissociated from the culture plates using Versene (Gibco) and resuspended in calcium- and magnesium-free phosphate-buffered saline containing bovine serum albumin and sodium azide. Exactly 2×10^5 cells were stained with R-Phycoerythrin-conjugated-anti-HER-2/neu murine IgG (Cat. 340552, Becton Dickinson) in buffer containing 100 μg/mL mouse IgG (Cat. 15381, Sigma). Cells were fixed with […]. 92-002, Becton Dickinson) followed by a short post-fix with ethanol at -20° C. Cellular DNA was stained with DAPI (Cat. D1306, Molecular Probes) in buffer containing RNase A (Sigma). […] For each cell analyzed, data was collected on signal pulses from linear forward scatter height and width, linear area and width of DAPI fluorescence for DNA, and logarithmic fluorescence height of the HER-2/neu antibody probe. […] The remaining cells were analyzed for cell cycle position by manual gating and HER-2/neu surface antigen density. Using the bead standard system described in Example 2, values of mean fluorescence intensity for HER-2/neu and other antigens were converted to values of “Antibodies Bound per Cell” (ABC) during analysis. […] Antigen presentation was quantified against calibrated bead standards calibrated by the vendor for murine IgG binding capacity (Quantum Simply Cellular Bead, Cat. QSC-100, Sigma); calibration beads were stained with R-phycoerythrin-conjugated anti-HER-2/neu murine IgG. […]

[10] = system: erbB2 receptor on BT-474 breast and NCI H322 lung adenocarcinoma cells; assay: Quantitation of cell surface erbB2 presentation, high erbB2 cell lines; format: cell-based; settings: BT-474 and H322
Protocol: as §4

[11] = system: SK-BR-3, MCF-7 and BT-474 breast adenocarcinoma cell lines; format: cell-based
Protocol: Cells were exposed to Gemzar (gemcitabine (GMZ), Lilly, Indianapolis, Ind.) for 24 hours. […] Cells were exposed to interferons continuously for 2-5 days.

[12] = system: MCF-7 and MDA-MB-468 breast adenocarcinoma cells; assay: Cell cycle analysis by flow cytometry (DAPI); format: cell-based; settings: Example 3
Protocol: as §1, with “Cellular DNA was stained with DAPI (Cat. D1306, Molecular Probes) in buffer containing RNase A (Sigma).” left out
Sample data were collected on a FACStar^PLUS® flow cytometer (Becton Dickinson) equipped with a 488 nm argon ion laser in position 1 and a 350 nm argon ion laser in position 2. For each cell analyzed, data was collected on signal pulses from linear forward scatter height and width, linear area and width of DAPI fluorescence for DNA, and logarithmic fluorescence height of the HER-2/neu antibody probe. […] The remaining cells were analyzed for cell cycle position by manual gating and HER-2/neu surface antigen density. Using the bead standard system described in Example 2, values of mean fluorescence intensity for HER-2/neu and other antigens were converted to values of “Antibodies Bound per Cell” (ABC) during analysis. […]

Molecule: CCC1=C[C@@H]2CN(C1)Cc1c([nH]c3ccccc13)[C@@](C(=O)OC)(c1cc3c(cc1OC)N(C)[C@H]1[C@@](O)(C(=O)OC)[C@H](OC(C)=O)[C@]4(CC)C=CCN5CC[C@]31[C@@H]54)C2 (relative stereo) [Navelbine, 3′, 4′-didehydro-4′-deoxy-C′-norvincaleukoblastine [R-(R*,R*)-2,3-dihydroxybutanedioate (1:2)(salt)]]
- internalization of the radiolabelled antibody 177Lu-GW1208W95 [1]: significantly inhibited internalization
- cell surface erbB2 presentation [2]: significant increases
- cell surface erbB2 presentation [3]: no significant increases
- tumor regression ([4]; Navelbine 28 mg/kg i.v. days 1 and 5, HT-29 xenografts): minimal tumor regression
- increase in tumor targeting of 177Lu-labelled antibody ([4]; Navelbine pretreatment 28 mg/kg i.v. days 1 and 5, relative to vehicle- or 5-FU-treated animals): 2 fold
- ADCC lysis of antibody-coated tumor target cells after drug pre-treatment [5]: improved
- LD10 [6]: ~28 mg/kg

Molecule: O=c1[nH]cc(F)c(=O)[nH]1 [5-FU, 5-fluorouracil]
- internalization of the radiolabelled antibody 177Lu-GW1208W95 [1]: extensive internalization
- cell surface Ep-CAM expression [7]: not significantly increased
- cells in S and G2/M phases combined [8]: 7.9%

Molecule: CNC(=O)[C@H](Cc1ccccc1)NC(=O)[C@H](CC(C)C)[C@H](CSc1cccs1)C(=O)NO [BB-94]
- cell cycle distribution [9]: did not affect cell cycle distribution
- cell surface erbB2 presentation [10]: increase in erbB2 presentation

Molecule: Nc1ccn([C@@H]2O[C@H](CO)[C@@H](O)C2(F)F)c(=O)n1 [Gemzar, gemcitabine]
- cell surface erbB2 presentation [10]: significant increases
- toxicity to cell lines based on the 18 s values [11]: toxic

Molecule: CC(=O)O[C@H]1C(=O)[C@@]2(C)[C@H]([C@H](OC(=O)c3ccccc3)[C@]3(O)C[C@H](OC(=O)[C@H](O)[C@@H](NC(=O)c4ccccc4)c4ccccc4)C(C)=C1C3(C)C)[C@]1(OC(C)=O)CO[C@@H]1C[C@@H]2O [Taxol, 5β, 20 epoxy-1,2α,4,7β,10β,13α-hexahydroxytax-11-en-9-one 4,10-diacetate 2-benzoate 13-ester with (2R, 3S)-N-benzoyl-3-phenylisoserine]
- internalization of the radiolabelled antibody 177Lu-GW1208W95 [1]: significantly inhibited internalization
- cell surface erbB2 presentation [2]: significant increases
- cell surface erbB2 presentation [3]: no significant increases

Molecule: interferon-alpha
- cell surface presentation of erbB2 receptor [2]: not significantly increased
- cell cycle distribution [12]: not significantly different from media control cells
- cell surface Ep-CAM expression [7]: not significantly increased
- cells in S and G2/M phases combined [8]: 12%

Molecule: interferon-gamma: interferon-gamma
- cell surface presentation of erbB2 receptor [2]: not significantly increased
- cell cycle distribution [12]: not significantly different from media control cells
- cell surface Ep-CAM expression [7]: not significantly increased
- cells in S and G2/M phases combined [8]: 11.5%

B1: interferon-gamma: interferon-gamma (protein, UniProt P01579 24-161, looked up)
Interferon gamma: QDPYVKEAENLKKYFNAGHSDVADNGTLFLGILKNWKEESDRKIMQSQIVSFYFKLFKNFKDDQSIQKSVETIKEDMNVKFFNSNKKKRDDFEKLTNYSVTDLNVQRKAIHELIQVMAELSPAAKTGKRKRSQMLFRG
- toxicity to cell lines based on the 18 s values [11]: toxic
